Measurements from ChEMBL document CHEMBL1914343, “Recent progress in synthesis and bioactivity studies of indolizines” (Eur J Med Chem, 2011).

Experiments:
[1] = Inhibition of soybean arachidonate 15-lipoxygenase; design: species or system Glycine max
[2] = molecular target: T1, Polyunsaturated fatty acid lipoxygenase ALOX15 (Oryctolagus cuniculus, UniProt P12530); experiment: Inhibition of rabbit reticulocytes arachidonate 15-lipoxygenase
T1 sequence (P12530 whole entry): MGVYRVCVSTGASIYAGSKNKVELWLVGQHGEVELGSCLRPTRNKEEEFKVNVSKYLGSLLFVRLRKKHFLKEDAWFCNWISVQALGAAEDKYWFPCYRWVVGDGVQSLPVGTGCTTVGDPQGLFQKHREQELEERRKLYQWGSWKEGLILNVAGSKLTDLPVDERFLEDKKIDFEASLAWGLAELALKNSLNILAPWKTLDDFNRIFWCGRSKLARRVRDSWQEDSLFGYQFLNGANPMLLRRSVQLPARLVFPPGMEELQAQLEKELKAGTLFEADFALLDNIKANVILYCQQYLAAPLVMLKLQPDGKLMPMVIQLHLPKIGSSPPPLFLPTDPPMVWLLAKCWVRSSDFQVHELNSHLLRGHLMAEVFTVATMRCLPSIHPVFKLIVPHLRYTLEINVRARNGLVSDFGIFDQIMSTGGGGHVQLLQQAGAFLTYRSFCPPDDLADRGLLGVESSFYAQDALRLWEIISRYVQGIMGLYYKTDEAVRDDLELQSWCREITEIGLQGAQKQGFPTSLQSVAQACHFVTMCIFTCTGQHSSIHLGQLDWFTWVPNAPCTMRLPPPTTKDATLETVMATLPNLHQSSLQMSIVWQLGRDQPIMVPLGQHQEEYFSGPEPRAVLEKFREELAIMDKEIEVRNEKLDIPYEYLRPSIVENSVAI

[3] = test system: Mycobacterium tuberculosis; experiment: Antimycobacterial activity against Mycobacterium tuberculosis H37Rv ATCC 27294 at 6.25 ug/mL by microplate alamar blue assay; type: functional
[4] = Antioxidant activity assessed as inhibition of lipid peroxidation after 30 mins; type: functional
[5] = test system: Radical scavenging activity; experiment: Antioxidant activity assessed as DPPH radical scavenging activity at 667 uM after 15 mins; type: functional

Row | SMILES | IC50 [1] [µM] | IC50 [2] [µM] | inhibition at 6.25 µg/mL [3] [%] | IC50 [4] [µM] | Activity [5] [%]
1 | O=c1c(O)c(-c2ccc(O)c(O)c2)oc2cc(O)cc(O)c12 [QUERCETIN] | 51 | 37 | – | – | –
2 | COc1ccc(C(O)c2c(-c3ccccc3)c(-c3ccccc3)n3ccc(C#N)cc23)cc1 (stereo not given) | 17 | – | 87 | – | –
3 | N#Cc1ccn2c(-c3ccccc3)c(-c3ccccc3)c(-c3ccsc3)c2c1 | 19 | – | – | > 100 | 0
4 | N#Cc1ccn2c(-c3ccccc3)c(-c3ccccc3)c(C=O)c2c1 | 29 | 61 | 35 | – | –
5 | N#Cc1ccn2c(-c3ccccc3)c(-c3ccccc3)c(OCc3ccc(F)cc3)c2c1 | 35 | – | – | – | 1.8
6 | CC(C)c1ccc(S(=O)(=O)Oc2c(-c3ccccc3)c(-c3ccccc3)n3ccc(C#N)cc23)cc1 | 16 | – | – | – | –
7 | COc1ccc(COc2c(-c3ccccc3)c(-c3ccccc3)n3ccc(C#N)cc23)cc1 | 32 | – | – | – | 33.3
8 | CCCCc1c(OS(=O)(=O)c2ccc(C)cc2)c2cc(C#N)ccn2c1CCCC | 30 | – | – | – | –
9 | COc1ccc(S(=O)(=O)Oc2c(-c3ccccc3)c(-c3ccccc3)n3ccc(C#N)cc23)c(OC)c1 | 27 | – | – | – | –
10 | COc1cccc(C(=O)Oc2c(-c3ccccc3)c(-c3ccccc3)n3ccc(C#N)cc23)c1 | 28 | – | – | – | 1.2
11 | C=Cc1c(-c2ccccc2)c(-c2ccccc2)n2ccc(C#N)cc12 | – | – | – | > 100 | –
12 | Cc1ccc(S(=O)(=O)Oc2c(-c3ccccc3)c(-c3ccccc3)n3ccccc23)cc1 | 25 | – | – | – | –
13 | COc1ccccc1C(=O)Oc1c(-c2ccccc2)c(-c2ccccc2)n2ccc(C#N)cc12 | 30 | – | – | – | 4.7
14 | CC(=O)Oc1c(-c2ccccc2)c(-c2ccccc2)n2ccc(C#N)cc12 | 31 | 75 | – | 0.15 | -0.5
15 | Cc1ccc(S(=O)(=O)Oc2c(-c3ccc(Cl)cc3)c(-c3ccc(Cl)cc3)n3ccc(C#N)cc23)cc1 | 20 | – | – | – | –
16 | N#Cc1ccn2c(-c3ccccc3)c(-c3ccccc3)c(OS(=O)c3ccsc3)c2c1 (stereo not given) | 23 | – | – | – | –
17 | CC(O)c1c(-c2ccccc2)c(-c2ccccc2)n2ccc(C#N)cc12 (stereo not given) | 26 | – | 78 | – | –
18 | N#Cc1ccn2c(-c3ccccc3)c(-c3ccccc3)c(-c3cccs3)c2c1 | 20 | – | – | > 100 | -1.8
19 | N#Cc1ccn2c(-c3ccccc3)c(-c3ccccc3)c(OS(=O)(=O)c3ccccc3)c2c1 | 24 | – | – | – | –
20 | Cc1ccc(S(=O)(=O)Oc2c(-c3ccccc3)c(-c3ccccc3)n3ccc(C#N)cc23)cc1C | 19 | – | – | – | –
21 | CN(C)S(=O)(=O)Oc1c(-c2ccccc2)c(-c2ccccc2)n2ccc(C#N)cc12 | 25 | – | – | – | –
22 | CC(=O)c1c(-c2ccccc2)c(-c2ccccc2)n2ccc(C#N)cc12 | 23 | 44 | 21 | > 100 | –
23 | Cc1ccc(S(=O)(=O)Oc2c(-c3ccccc3)c(-c3ccccc3)n3ccc(C#N)cc23)cc1 | 17 | 25 | – | 3.64 | –

Row | SMILES | IC50 [1] [µM] | IC50 [2] [µM] | inhibition at 6.25 µg/mL [3] [%] | IC50 [4] [µM] | Activity [5] [%]
24 | COc1ccc(S(=O)(=O)Oc2c(-c3ccccc3)c(-c3ccccc3)n3ccc(C#N)cc23)cc1 | 25 | – | – | – | –
25 | Cc1ccccc1S(=O)(=O)Oc1c(-c2ccccc2)c(-c2ccccc2)n2ccc(C#N)cc12 | 22 | – | – | – | –
26 | COc1ccc(C(=O)Oc2c(-c3ccccc3)c(-c3ccccc3)n3ccc(C#N)cc23)cc1 | 28 | – | – | – | 5.4
27 | N#Cc1ccn2c(-c3ccccc3)c(-c3ccccc3)cc2c1 | 30 | 51 | 9 | > 100 | -0.2
28 | CCS(=O)(=O)Oc1c(-c2ccccc2)c(-c2ccccc2)n2ccc(C#N)cc12 | 28 | – | – | – | –
29 | CC(C)S(=O)(=O)Oc1c(-c2ccccc2)c(-c2ccccc2)n2ccc(C#N)cc12 | 42 | – | – | – | –
30 | Cc1cc(C)c(S(=O)(=O)Oc2c(-c3ccccc3)c(-c3ccccc3)n3ccc(C#N)cc23)c(C)c1 | 17 | – | – | – | –
31 | COC(c1ccccc1)c1c(-c2ccccc2)c(-c2ccccc2)n2ccc(C#N)cc12 (stereo not given) | 21 | – | 74 | – | –
32 | Cc1ccc(-c2c(OS(=O)(=O)c3ccc(C)cc3)c3cc(C#N)ccn3c2-c2ccc(C)cc2)cc1 | 20 | – | – | – | –
33 | N#Cc1ccn2c(-c3ccccc3)c(-c3ccccc3)c(OCc3cccc(Cl)c3)c2c1 | 31 | – | – | – | -0.1
34 | N#Cc1ccn2c(-c3ccc(Cl)cc3)c(-c3ccc(Cl)cc3)cc2c1 | 33 | – | – | – | –
35 | N#Cc1ccn2c(-c3ccccc3)c(-c3ccccc3)c(OS(=O)(=O)c3ccc(Cl)cc3)c2c1 | 22 | – | – | – | –
36 | COc1c(-c2ccccc2)c(-c2ccccc2)n2ccc(C#N)cc12 | 33 | 77 | – | 22 | -0.6
37 | N#Cc1ccn2c(-c3ccccc3)c(-c3ccccc3)c(Cc3ccccc3)c2c1 | 27 | 46 | 43 | – | –
38 | COc1ccccc1-c1c(-c2ccccc2)c(-c2ccccc2)n2ccc(C#N)cc12 | 20 | – | – | > 100 | -0.2
39 | N#Cc1ccn2c(-c3ccccc3)c(-c3ccccc3)c(OCOC(COCc3ccccc3)COCc3ccccc3)c2c1 | 31 | – | – | – | 4.2
40 | CC(=O)c1ccn2c(-c3ccccc3)c(-c3ccccc3)c(OS(=O)(=O)c3ccc(C)cc3)c2c1 | 23 | – | – | – | –
41 | COc1ccc(S(=O)(=O)Oc2c(-c3ccc(C)cc3)c(-c3ccc(C)cc3)n3ccc(C#N)cc23)cc1 | 25 | – | – | – | –
42 | N#Cc1ccn2c(-c3ccccc3)c(-c3ccccc3)c(OCc3ccccc3)c2c1 | 31 | – | – | – | 0.8
43 | N#Cc1ccn2c(-c3ccccc3)c(-c3ccccc3)c(CO)c2c1 | 26 | 34 | 67 | – | –
44 | COc1ccccc1COc1c(-c2ccccc2)c(-c2ccccc2)n2ccc(C#N)cc12 | 29 | – | – | – | 1.6
45 | N#Cc1ccn2c(-c3ccccc3)c(-c3ccccc3)c(-c3ccco3)c2c1 | 24 | – | – | > 100 | -0.6
46 | N#Cc1ccn2c(-c3ccccc3)c(-c3ccccc3)c(OS(=O)c3cccs3)c2c1 (stereo not given) | 21 | – | – | – | –

Row | SMILES | IC50 [1] [µM] | IC50 [2] [µM] | inhibition at 6.25 µg/mL [3] [%] | IC50 [4] [µM] | Activity [5] [%]
47 | N#Cc1ccn2c(-c3ccccc3)c(-c3ccccc3)c(OS(=O)(=O)c3ccc(C(F)(F)F)cc3)c2c1 | 23 | – | – | – | –
48 | N#Cc1ccn2c(-c3ccccc3)c(-c3ccccc3)c(C(=O)c3ccccc3)c2c1 | 23 | 43 | 33 | – | –
49 | COc1cccc(-c2c(-c3ccccc3)c(-c3ccccc3)n3ccc(C#N)cc23)c1 | 20 | – | – | > 100 | -0.3
50 | COc1ccc(-c2c(-c3ccccc3)c(-c3ccccc3)n3ccc(C#N)cc23)cc1 | 20 | 37 | – | > 100 | -0.9
51 | CS(=O)(=O)c1ccc(S(=O)(=O)Oc2c(-c3ccccc3)c(-c3ccccc3)n3ccc(C#N)cc23)cc1 | 24 | – | – | – | –
52 | Cc1ccc(S(=O)(=O)c2c(-c3ccccc3)c(-c3ccccc3)n3ccc(C#N)cc23)cc1 | 29 | – | – | – | –
53 | N#Cc1ccn2c(-c3ccccc3)c(-c3ccccc3)c(Br)c2c1 | – | – | 69 | > 100 | –
54 | N#Cc1ccn2c(-c3ccccc3)c(-c3ccccc3)c(OCOCc3ccccc3)c2c1 | 27 | 39 | – | – | 0.1
55 | CC(O)(c1ccccc1)c1c(-c2ccccc2)c(-c2ccccc2)n2ccc(C#N)cc12 (stereo not given) | 17 | – | 71 | – | –
56 | Cc1ccc(S(=O)(=O)Oc2c(-c3ccc(F)cc3)c(-c3ccc(F)cc3)n3ccc(C#N)cc23)cc1 | 22 | – | – | – | –
57 | Cc1ccc(S(=O)(=O)Oc2c(-c3ccccc3)c(-c3ccccc3)n3ccc(C=O)cc23)cc1 | 20 | – | – | – | –
58 | N#Cc1ccn2c(-c3ccccc3)c(-c3ccccc3)c(OCc3ccc(Cl)cc3)c2c1 | 31 | – | – | – | 1.3
59 | N#Cc1ccn2c(-c3ccc(F)cc3)c(-c3ccc(F)cc3)cc2c1 | 30 | – | – | – | –
60 | COc1ccc(OC)c(S(=O)(=O)Oc2c(-c3ccccc3)c(-c3ccccc3)n3ccc(C#N)cc23)c1 | 15 | – | – | – | –
61 | COc1ccc(-c2c(OS(=O)(=O)c3ccc(C)cc3)c3cc(C#N)ccn3c2-c2ccc(OC)cc2)cc1 | 24 | – | – | – | –
62 | Cc1ccc(COc2c(-c3ccccc3)c(-c3ccccc3)n3ccc(C#N)cc23)cc1 | 37 | – | – | – | -0.8
63 | N#Cc1ccn2c(-c3ccccc3)c(-c3ccccc3)c(OS(=O)(=O)C(F)(F)F)c2c1 | 46 | 59 | – | 0.6 | 79.5
64 | Cc1ccc(-c2cc3cc(C#N)ccn3c2-c2ccc(C)cc2)cc1 | 27 | – | – | – | –
65 | N#Cc1ccn2c(-c3ccccc3)c(-c3ccccc3)c(-c3ccccc3)c2c1 | 28 | – | 8 | > 100 | –
66 | Cc1c(-c2ccccc2)c(-c2ccccc2)n2ccc(C#N)cc12 | 27 | – | 41 | – | -0.9
67 | CCc1c(OS(=O)(=O)c2ccc(C)cc2)c2cc(C#N)ccn2c1CC | 29 | – | – | – | –
68 | CS(=O)(=O)Oc1c(-c2ccccc2)c(-c2ccccc2)n2ccc(C#N)cc12 | 22 | – | – | – | –
